Experimental data as given in US5688773A, “Method of selectively destroying neoplastic cells” (priority 1994, dated 1997).

Tests used:
C6 cells = assay: Cyclophosphamide dose-response assay; assay type: cell-based; conditions: Rattus norvegicus, up to 1 mM CPA, read-out: cells that survived incubation
Procedure: Two days later CPA was added to final concentrations of 0-100 μM. Five days after plating, the monolayers were rinsed twice with Hank's buffered saline (GIBCO) to remove dead cells. Monolayers were dispersed using trypsin-EDTA (GIBCO), and cell numbers were determined using a Coulter counter (Coulter Electronics Inc.).

[1] = test system: C6 cells exposed to CM from C6; assay: C6 colony formation after conditioned medium from drug-exposed cells; assay type: cell-based, rat; conditions: for Colony numbers: colonies six days later
[2] = test system: C6 cells co-cultured with irradiated C6-P450 cells; assay: Co-culture assay with irradiated cells; assay type: cell-based; conditions: Rattus norvegicus, light or radiation study, 96 h; 10% irradiated C6-P450 cells; 0.5 mM CPA, four days; read-out: decrease in the proliferation of C6 cells
Procedure: Co-culture assay: Co-cultures of C6-P450 and C6 cells were incubated in triplicate at different ratios (where 0, 10, 50, 90, and 100% of the cells were C6-P450 cells) to achieve a total number of 2×10^6 cells/10 cm dish. After 24 hours, 0.5 mM CPA was added and four days later, cells were counted as previously described. To compare the killing achieved by cell contact with that obtained by exposure to conditioned medium, the supernatant from each co-culture was harvested, filtered through 0.45 μm membrane filters, mixed in a 1:1 ratio with 5 mL of fresh medium and added to overnight cultures of C6 cells (2×10^6 cells/10 cm dish in triplicate). Four days later, C6 cells were washed, harvested and counted. To determine the specificity of the cell-mediated killing effect from the co-culture assays, C6 cells were incubated overnight with C6 cells that expressed the neomycin phosphotransferase gene (C6-Neo), with irradiated C6 cells, with irradiated C6-Neo, and with irradiated C6-P450 cells. γ-irradiation was performed by exposing cells to a total of 6000 rads emitted by a ^51 chromium source.

MCF-7-Z3 cells = assay: Cyclophosphamide sensitivity of MCF-7 cell lines in culture; assay type: cell-based, human
Procedure: (§1) To test for drug sensitivity, 1×10^5 cells were plated in 30-mm tissue culture plates (Falcon 3046) in duplicate. Drugs were added 18-24 hours after seeding. Cells were allowed to grow for times ranging up to 5 days after drug treatment, and the final cell number was then determined. Cells were rinsed with phosphate buffered saline or Hank's buffered saline, dispersed using trypsin-EDTA (GIBCO/BRL, Inc.), and then counted with a hemocytometer. Results are expressed as a growth ratio, i.e., the number of cells in plates containing drug as a percentage of the corresponding drug-free controls (mean±range of duplicate determinations).
(§2) Transfection of MCF-7 cells with the cytochrome P450 2B1 expression plasmid, selection of neomycin-resistant clones, characterization of the expressed cytochrome P450 2B1 protein, and sensitivity of cell lines to drugs were carried out as described in Example 7 for the 9L cytochrome P450 2B1-expressing cell lines.

[3] = test system: cytochrome P450 2B1-expressing MCF-7 cell lines P2, P3, P5, P8, P9 and P26; assay: as above; assay type: cell-based, human
Procedure: as §1, §2

parental MCF-7 cells = assay: as above; assay type: cell-based, human
Procedure: as §1, §2

C6BAG cells = assay: Ganciclovir sensitivity, cell proliferation assay; assay type: cell-based, rat; conditions: even at 1000 nM ganciclovir
Procedure: (§3) Ganciclovir Sensitivity Assays in Culture: To measure the sensitivity of isolated cells, cells were plated in 24-well plates at a density of 10^4 cells per well. The next day, medium was replaced with medium containing ganciclovir (Cytovene, Burroughs Wellcome) at varying concentrations (0-1 μM) in quadruplicate. Four days later, cells were harvested using trypsin and counted using a cell counter (Coulter Electronics Ltd., Luton, United Kingdom). Cell growth is expressed as the percentage of cells compared to the number of cells without treatment (100%).

C6BAGWT cells = assay: Ganciclovir sensitivity, cell proliferation assay; assay type: cell-based, rat; conditions: even at 1000 nM ganciclovir
Procedure: as §3

C6BBAG cells = assay: Ganciclovir sensitivity, cell proliferation assay; assay type: cell-based, rat; conditions: even at 1000 nM ganciclovir
Procedure: as §3

[4] = test system: C6BU1 (HSV-TK negative) cells; assay: Ganciclovir sensitivity, cell proliferation assay; assay type: cell-based, rat; conditions: even at 1000 nM ganciclovir
Procedure: as §3

C6BWT cells = assay: Ganciclovir sensitivity, cell proliferation assay; assay type: cell-based, rat; conditions: even at 1000 nM ganciclovir
Procedure: as §3

[5] = test system: C6BAG cells co-cultured with C6VIKWT cells; assay: Delayed co-culture, ganciclovir sensitivity of recipient colonies; assay type: cell-based, rat
Procedure: Donor C6VIK or C6VIKWT cells were then added to the cultures at a ratio of 1:2 (5×10^4 recipient cells: 10^5 donor cells). Control cultures consisted of C6BAG or C6BBAG cells alone, or C6BA6 or C6BBAG cells co-plated with "donor" C6BU1 or C6BWT cells, after delay, as above. After 10 days, ganciclovir was added at varying concentrations (0-300 μM) and cells were incubated for another 9-12 days with the drug. Cells were then fixed with 0.5% glutaraldehyde and stained histochemically for beta-galactosidase activity, as described (Price et al., Proc. Natl. Acad. Sci. USA 84:1141-1145 (1987)), and colonies were counted.

[6] = test system: C6 glioma cells and other cells infected with this retrovirus; conditions: cell culture; cited from earlier work

O=P1(N(CCCl)CCCl)NCCCO1 (stereo not drawn) [cyclophosphamide]
viability at 1000 µM (C6 cells): ≥ 80%
Colony numbers ([1]; CM after 0.5 h of 0.5 mM CPA): 247 ± 3
Colony numbers ([1]; CM after 1.5 h of 0.5 mM CPA): 256 ± 7
Colony numbers ([1]; CM after 3 h of 0.5 mM CPA): 257 ± 1
Colony numbers ([1]; CM after 6 h of 0.5 mM CPA): 260 ± 4
Colony numbers ([1]; CM after 10 h of 0.5 mM CPA): 245 ± 5
Colony numbers ([1]; CM after 24 h of 0.5 mM CPA): 255 ± 14
Colony numbers ([1]; CM after 32 h of 0.5 mM CPA): 240 ± 2
Colony numbers ([1]; CM after 48 h of 0.5 mM CPA): 245 ± 6
Colony numbers ([1]; CM after 72 h of 0.5 mM CPA): 260 ± 5
Colony numbers ([1]; CM after 96 h of 0.5 mM CPA): 260 ± 9
Secretion effect, C6 colony number ([1]; Table V panel C, CM from treated C6 cultures): 271±14.2
inhibition at 500 µM [2]: 30%
Sensitivity to cyclophosphamide (MCF-7-Z3 cells): insensitive to high concentrations
Sensitivity to cyclophosphamide cytotoxicity [3]: highly sensitive
Sensitivity to cyclophosphamide (parental MCF-7 cells): insensitive to high concentrations

Nc1nc(O)c2ncn(COC(CO)CO)c2n1 [ganciclovir]
Inhibition of growth (C6BAG cells): No substantial inhibition of growth
Inhibition of growth (C6BAGWT cells): No substantial inhibition of growth
Inhibition of growth (C6BBAG cells): No substantial inhibition of growth
Inhibition of growth [4]: No substantial inhibition of growth
Inhibition of growth (C6BWT cells): No substantial inhibition of growth
IC50 ([5]; Rattus norvegicus, ratio 1:2, read-out: ganciclovir concentration at which 50% of cells grew): 3 µM
Survival of beta-galactosidase-positive recipient colonies ([5]; ratio 1:2): almost complete ablation of the recipient cells
fold lower ganciclovir concentration killing infected vs uninfected cells [6]: 100 fold
